# ChEMBL document CHEMBL5338711, “Designing and development of phthalimides as potent anti-tubulin hybrid molecules against malaria” (Eur J Med Chem, 2022)
# The source made the active and inactive calls. The calls are words filed in the database; no cut-off is given here.
# How the values were obtained:
# [1] = Cytotoxicity against human HepG2 cells; assay type: toxicity, cell-based
# Plasmodium falciparum [2] = assay: Antimalarial activity against […] infected in human RBC assessed as inhibition of plasmodial growth at 1 uM by SYBR green dye based spectrofluorometric analysis relative to control; assay type: functional; details: 3D7, Erythrocyte
# Plasmodium falciparum [3] = assay: Antimalarial activity against […] infected in human RBC assessed as inhibition of plasmodial growth at 10 uM by SYBR green dye based spectrofluorometric analysis relative to control; assay type: functional; details: 3D7, Erythrocyte
# Plasmodium falciparum [4] = assay: Antimalarial activity against chloroquine-sensitive synchronized late stage trophozoite Plasmodium falciparum 3D7 infected in human RBC assessed as inhibition of plasmodial growth by giemsa staining based analysis; assay type: functional, organism-based; details: 3D7, Erythrocyte
# Plasmodium falciparum [5] = assay: Antimalarial activity against chloroquine-resistant synchronized late stage trophozoite Plasmodium falciparum RKL-9 infected in human RBC assessed as inhibition of plasmodial growth by giemsa staining based analysis; assay type: functional, organism-based; details: RKL-9, Erythrocyte
# Plasmodium falciparum [6] = assay: Antimalarial activity against chloroquine-resistant Plasmodium falciparum RKL-9 infected in human RBC assessed as reduction of plasmodial growth by SYBR green dye based spectrofluorometric analysis; assay type: functional, organism-based
# Erythrocyte = assay: Hemolytic activity in human RBC assessed as hemolysis upto 5 uM incubated for 2 hrs; assay type: toxicity, cell-based
# [7] = Therapeutic index, ratio of CC50 for human HepG2 cells to IC50 for chloroquine-sensitive synchronized late stage trophozoite Plasmodium falciparum 3D7 infected in human RBC; assay type: toxicity; details: read-out: TI
# [8] = Cytotoxicity against […] cell upto 500 uM; assay type: toxicity, cell-based; details: human
# Plasmodium falciparum [9] = assay: Antiplasmodial activity against synchronized ring stage Plasmodium falciparum 3D7 infected in human RBC assessed as defect in invasion stage by measuring merozoites sticking on the red blood cell surface at IC50 concentration measured after 60 hrs by giemsa staining based light microscopic analysis; assay type: functional, organism-based
# Plasmodium falciparum [10] = assay: Induction of mitochondrial membrane depolarization in trophozoite stage Plasmodium falciparum 3D7 infected in human RBC assessed as increase in green fluorescence at IC50 concentration incubated for 3 hrs by JC-1 dye based fluorescence microscopic analysis; assay type: functional, organism-based
# Plasmodium falciparum [11] = assay: Induction of mitochondrial membrane depolarization in trophozoite stage Plasmodium falciparum 3D7 infected in human RBC assessed as decrease in red to green fluorescence ratio at IC50 concentration incubated for 3 hrs by JC-1 dye based fluorescence microscopic analysis; assay type: functional, organism-based
# Plasmodium falciparum [12] = assay: Induction of mitochondrial membrane depolarization in trophozoite stage Plasmodium falciparum 3D7 infected in human RBC assessed as red to green fluorescence ratio at IC50 concentration incubated for 3 hrs by JC-1 dye based spectrofluorometric analysis (reference value: 6.96+/-0.94); assay type: functional
# Plasmodium falciparum [13] = assay: Synergistic antimalarial activity against synchronized ring stage Plasmodium falciparum 3D7 infected in human RBC assessed as mean fractional inhibitory concentration at 2:3 ratio of ART to compound incubated for 72 hrs by giemsa staining based flow cytometric analysis; assay type: functional
# Plasmodium falciparum [14] = assay: Synergistic antimalarial activity against synchronized ring stage Plasmodium falciparum 3D7 infected in human RBC assessed as mean fractional inhibitory concentration at 1:4 ratio of ART to compound incubated for 72 hrs by giemsa staining based flow cytometric analysis; assay type: functional
# [15] = Binding affinity to recombinant N-terminal 6His tagged Plasmodium falciparum alpha-1 tubulin expressed in Escherichia coli BL21 assessed as dissociation constant by SPR analysis
# Plasmodium falciparum [16] = assay: Binding affinity to recombinant N-terminal 6His tagged Plasmodium falciparum beta-tubulin expressed in Escherichia coli BL21 at 0.78 to 75 uM by SPR analysis; details: dose 0.78-75 µM
# Plasmodium falciparum [17] = assay: Binding affinity to recombinant N-terminal 6His tagged Plasmodium falciparum alpha-1 tubulin expressed in Escherichia coli BL21 assessed as thermo-stabilization incubated at 4 to 80 degreeC for 3 mins followed by 5 mins incubation at room temperature by thermal shift assay; details: time 8.0 min
# Plasmodium berghei [18] = assay: Antimalarial activity against Plasmodium berghei ANKA in BALB/c mouse injected with parasite infected erythrocytes assessed as decrease in parasite load at 30 mg/kg, ip administered daily for 7 days relative to control; assay type: functional; parameters: scale not given: the % may be the effect or the level left; details: time 7 day
# Plasmodium berghei [19] = assay: Antimalarial activity against Plasmodium berghei ANKA in BALB/c mouse injected with parasite infected erythrocytes assessed as reduction in parasitemia at 30 mg/kg, ip administered daily for 7 days and measured after 15 days; assay type: functional, organism-based; details: time 15.0 day
# Plasmodium berghei [20] = assay: Antimalarial activity against Plasmodium berghei ANKA in BALB/c mouse injected with parasite infected erythrocytes assessed as […] mean survival time at 30 mg/kg, ip administered daily for 7 days and measured after 15 days; assay type: functional; details: time 15 day
# Plasmodium falciparum [21] = assay: Antiplasmodial activity against […] incubated for 90 hrs by SYBR green I dye based analysis; assay type: functional, organism-based; details: 3D7, 90 h
# [22] = Cytotoxicity against human U-937 cells assessed as reduction in cell viability incubated for 24 hrs by MTT assay; assay type: toxicity, cell-based
# Plasmodium falciparum [23] = assay: Antiplasmodial activity against Plasmodium falciparum 3D7; assay type: functional, organism-based
# Plasmodium falciparum [24] = assay: Antiplasmodial activity against synchronized ring stage Plasmodium falciparum 3D7 infected in human RBC assessed as reduction in parasitemia percentage by measuring defect in invasion stage at IC50 concentration measured after 60 hrs by giemsa staining based light microscopic analysis; assay type: functional, organism-based
# Plasmodium falciparum [25] = assay: Antiplasmodial activity against synchronized ring stage Plasmodium falciparum 3D7 infected in human RBC assessed as reduction in parasitemia percentage by measuring defect in egress stage at IC50 concentration measured after 60 hrs by giemsa staining based light microscopic analysis; assay type: functional, organism-based
# Plasmodium falciparum [26] = assay: Binding affinity to recombinant N-terminal 6His tagged Plasmodium falciparum alpha-1 tubulin expressed in Escherichia coli BL21 assessed as dissociation constant at 0.78 to 75 uM by SPR analysis; details: dose 0.78-75 µM
# [27] = Therapeutic index, ratio of cytotoxicity against […] cells to IC50 for chloroquine-sensitive synchronized late stage trophozoite Plasmodium falciparum 3D7 infected in human RBC; assay type: toxicity, cell-based; details: read-out: TI
# Plasmodium falciparum [28] = assay: Antiplasmodial activity against synchronized ring stage Plasmodium falciparum 3D7 infected in human RBC assessed as failure of egress by measuring accumulation at late schizont stage at IC50 concentration measured after 60 hrs by giemsa staining based light microscopic analysis; assay type: functional, organism-based
smiles,measurement,setting,value
CCC(C)[C@H](c1nc2ccccc2n1Cc1cn(-c2ccc(C(F)(F)F)cc2)nn1)N1C(=O)c2ccccc2C1=O (some centres not stated),IC50,[1],> 100000 nM
same,inhibition at 1 µM,Plasmodium falciparum [2],45%
same,inhibition at 10 µM,Plasmodium falciparum [3],68%
same,IC50,Plasmodium falciparum [4],640 nM
same,IC50,Plasmodium falciparum [5],1620 nM
same,Activity,Plasmodium falciparum [6],Dose dependent effect
same,Activity,Erythrocyte,Non-Toxic
same,selectivity ratio,[7],156
same,Activity,[8],Non-Toxic
same,Activity,Plasmodium falciparum [9],Active
same,Activity,Plasmodium falciparum [10],Active
same,Activity,Plasmodium falciparum [11],Active
same,Activity,Plasmodium falciparum [12],4.61
same,FIC,Plasmodium falciparum [13],0.86
same,FIC,Plasmodium falciparum [14],0.67
same,Kd,[15],26400 nM
same,Activity,Plasmodium falciparum [16],inactive
same,Activity,Plasmodium falciparum [17],Active
same,Activity,Plasmodium berghei [18],2.1%
same,Activity,Plasmodium berghei [19],Active
same,MST,Plasmodium berghei [20],11.42 days
CC(C)[C@H](c1nc2ccccc2n1Cc1cn(-c2c(F)cccc2F)nn1)N1C(=O)c2ccccc2C1=O,inhibition at 1 µM,Plasmodium falciparum [2],-26%
same,inhibition at 10 µM,Plasmodium falciparum [3],91%
CCC(C)[C@H](c1nc2ccccc2n1Cc1cn(-c2c(F)c(F)c(F)c(F)c2F)nn1)N1C(=O)c2ccc(C)cc2C1=O (some centres not stated),inhibition at 1 µM,Plasmodium falciparum [2],-4%
same,inhibition at 10 µM,Plasmodium falciparum [3],95%
CCC(C)C(c1nc2ccccc2n1Cc1c[nH]nn1)N1C(=O)c2ccccc2C1=O (configuration not stated),IC50,Plasmodium falciparum [21],700 nM
same,CC50 at 24 h,[22],2080 nM
CC(C)C(c1nc2ccccc2n1Cc1cn(-c2ccc(F)cc2)nn1)N1C(=O)c2ccccc2C1=O (configuration not stated),IC50,Plasmodium falciparum [21],3500 nM
same,CC50 at 24 h,[22],780 nM
Cc1ccc2c(c1)C(=O)N([C@H](CC(C)C)c1nc3ccccc3n1Cc1cn(-c3ccc(Cl)cc3)nn1)C2=O,IC50,Plasmodium falciparum [23],640 nM
same,IC50,[1],> 100000 nM
same,inhibition at 1 µM,Plasmodium falciparum [2],43%
same,inhibition at 10 µM,Plasmodium falciparum [3],73%
same,IC50,Plasmodium falciparum [4],740 nM
same,IC50,Plasmodium falciparum [5],1710 nM
same,Activity,Plasmodium falciparum [6],Dose dependent effect
same,Activity,Erythrocyte,Non-Toxic
same,selectivity ratio,[7],> 135
same,Activity,[8],Non-Toxic
same,Activity,Plasmodium falciparum [24],Active
same,Activity,Plasmodium falciparum [25],Active
same,Activity,Plasmodium falciparum [10],Active
same,Activity,Plasmodium falciparum [11],Active
same,Activity,Plasmodium falciparum [12],4.62
same,FIC,Plasmodium falciparum [13],0.87
same,FIC,Plasmodium falciparum [14],0.98
same,Activity,Plasmodium falciparum [26],inactive
same,Activity,Plasmodium falciparum [16],inactive
same,Activity,Plasmodium falciparum [17],Active
same,Activity,Plasmodium berghei [18],3.6%
same,Activity,Plasmodium berghei [19],Active
same,MST,Plasmodium berghei [20],11.07 days
Cc1ccc2c(c1)C(=O)N([C@H](CC(C)C)c1nc3ccccc3n1Cc1cn(-c3ccc(C(F)(F)F)cc3)nn1)C2=O,inhibition at 1 µM,Plasmodium falciparum [2],37%
same,inhibition at 10 µM,Plasmodium falciparum [3],75%
CCC(C)[C@H](c1nc2ccccc2n1Cc1cn(-c2ccc(F)cc2F)nn1)N1C(=O)c2ccc(C)cc2C1=O (some centres not stated),inhibition at 1 µM,Plasmodium falciparum [2],21%
same,inhibition at 10 µM,Plasmodium falciparum [3],94%
Cc1ccc2c(c1)C(=O)N([C@H](CC(C)C)c1nc3ccccc3n1Cc1c[nH]nn1)C2=O,inhibition at 1 µM,Plasmodium falciparum [2],-64%
same,inhibition at 10 µM,Plasmodium falciparum [3],71%
CCC(C)[C@H](c1nc2ccccc2n1Cc1cn(-c2ccc(F)cc2)nn1)N1C(=O)c2ccc(C)cc2C1=O (some centres not stated),IC50,[1],> 100000 nM
same,inhibition at 1 µM,Plasmodium falciparum [2],20%
same,inhibition at 10 µM,Plasmodium falciparum [3],64%
same,IC50,Plasmodium falciparum [4],2200 nM
same,IC50,Plasmodium falciparum [5],3430 nM
same,Activity,Plasmodium falciparum [6],Dose dependent effect
same,Activity,Erythrocyte,Non-Toxic
same,selectivity ratio,[7],46
same,Activity,[8],Non-Toxic
same,selectivity ratio,[27],> 800
same,Activity,Plasmodium falciparum [28],Active
same,Activity,Plasmodium falciparum [10],Active
same,Activity,Plasmodium falciparum [11],Active
same,Activity,Plasmodium falciparum [12],5.56
same,Activity,Plasmodium falciparum [26],inactive
same,Activity,Plasmodium falciparum [16],inactive
same,Activity,Plasmodium falciparum [17],Active
Cc1ccc(-n2cc(Cn3c([C@@H](CC(C)C)N4C(=O)c5ccc(C)cc5C4=O)nc4ccccc43)nn2)cc1,inhibition at 1 µM,Plasmodium falciparum [2],-8.63%
same,inhibition at 10 µM,Plasmodium falciparum [3],68.9%
